This is an account of results in patent publication US6686355B2, “Biphenyl sulfonamides useful as matrix metalloproteinase inhibitors” (Warner-Lambert Company, priority 2001, dated 2004).

The IC50 is the point on the concentration scale where inhibition reaches its midpoint. Read a high IC50 as weaker potency in that assay.

Common to all, as to format: biochemical
Assay [1] concerns the target T1, MMP-2FL (full length Gelatinase A) (Homo sapiens, UniProt P08253).
T1 sequence (P08253 110-660): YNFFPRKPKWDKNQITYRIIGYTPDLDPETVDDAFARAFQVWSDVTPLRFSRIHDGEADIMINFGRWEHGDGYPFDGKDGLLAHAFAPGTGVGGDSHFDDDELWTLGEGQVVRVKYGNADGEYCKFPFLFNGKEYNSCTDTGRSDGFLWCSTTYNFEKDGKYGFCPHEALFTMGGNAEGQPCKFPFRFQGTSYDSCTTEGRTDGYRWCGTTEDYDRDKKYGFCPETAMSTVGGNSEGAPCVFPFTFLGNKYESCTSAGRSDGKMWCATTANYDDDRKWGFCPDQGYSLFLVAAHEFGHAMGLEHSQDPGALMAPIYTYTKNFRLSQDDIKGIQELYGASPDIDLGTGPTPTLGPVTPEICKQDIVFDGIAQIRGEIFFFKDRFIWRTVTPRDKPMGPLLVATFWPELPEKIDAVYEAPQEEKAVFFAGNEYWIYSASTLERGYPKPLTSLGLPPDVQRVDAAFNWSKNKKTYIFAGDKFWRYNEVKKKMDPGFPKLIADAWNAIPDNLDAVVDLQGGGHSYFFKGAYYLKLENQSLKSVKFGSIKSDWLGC
As to the kind of experiment: Thiopeptolide hydrolysis assay, MMP-2FL. The following applies: thiopeptolide substrate, HEPES pH 7.0, 22° C. An excerpt:
(§1) The assays measure the amount by which a test compound reduces the hydrolysis of a thiopeptolide substrate catalyzed by a matrix metalloproteinase enzyme. Such assays are described in detail by Ye et al., in Biochemistry, 1992;31(45):11231-11235, which is incorporated herein by reference.
(§2) Thiopeptolide substrates show virtually no decomposition or hydrolysis at or below neutral pH in the absence of a matrix metalloproteinase enzyme. A typical thiopeptolide substrate commonly utilized for assays is Ac-Pro-Leu-Gly-thioester-Leu-Leu-Gly-OEt. A 100 μL assay mixture will contain 50 mM of N-2-hydroxyethylpiperazine-N′-2-ethanesulfonic acid buffer (“HEPES”) at pH 7.0, 10 mM CaCl2, 100 μM thiopeptolide substrate, and 1 mM 5,5″-dithio-bis-(2-nitro-benzoic acid) (DTNB). The thiopeptolide substrate concentration may be varied from, for example, 10 to 800 μM to obtain Km and Kcat values. The change in absorbance at 405 nm is monitored on a Thermo Max microplate reader (Molecular Devices, Menlo Park, Calif.) at room temperature (22° C.). The calculation of the amount of hydrolysis of the thiopeptolide substrate is based on E412=13600 M^−1 cm^−1 for the DTNB-derived product 3-carboxy4-nitrothiophenoxide. Assays are carried out with and without matrix metalloproteinase inhibitor compounds, and the amount of hydrolysis is compared for a determination of inhibitory activity of the test compounds.
(§3) Several representative compounds have been evaluated for their ability to inhibit various matrix metalloproteinase enzymes. In Table I, MMP-1FL refers to full length interstitial collagenase; MMP-2FL refers to full length Gelatinase A; MMP-3CD refers to the catalytic domain of stromelysin-1; MMP-7FL refers to full length matrilysin; MMP-9FL refers to full length Gelatinase B; MMP-13CD refers to the catalytic domain of collagenase 3; and MMP-14CD refers to the catalytic domain of MMP-14. Test compounds were evaluated at various concentrations in order to determine their respective IC50 values, the micromolar concentration of compound required to cause a 50% inhibition of the catalytic activity of the respective enzyme.

Assay [2] concerns the target MMP-13CD (catalytic domain of collagenase 3) (Homo sapiens, UniProt P45452). As to the kind of experiment: Thiopeptolide hydrolysis assay, MMP-13CD. The following applies: thiopeptolide substrate, HEPES pH 7.0, 22° C.
Excerpt: as §1, §2, §3

Another assay addresses T2, MMP-12CD (Homo sapiens, UniProt P39900).
T2 construct: MMP-12CD
The assay can be described thus: Thiopeptolide hydrolysis assay, MMP-12CD. To be noted: thiopeptolide substrate, HEPES pH 7.0, 22° C.
Excerpt: as §1, §2, §3

Assay [3] has as its target MMP-14CD (catalytic domain of MMP-14) (Homo sapiens, UniProt P50281). As to the kind of experiment: Thiopeptolide hydrolysis assay, MMP-14CD. To be noted: thiopeptolide substrate, HEPES pH 7.0, 22° C.
Excerpt: as §1, §2, §3

Assay [4] has as its target MMP-3CD (catalytic domain of stromelysin-1) (Homo sapiens, UniProt P08254). As to the kind of experiment: Thiopeptolide hydrolysis assay, MMP-3CD. To be noted: thiopeptolide substrate, MES pH 6.0.
Excerpt: as §1, §2, §3
It should be appreciated that the assay buffer used with MMP-3CD was 50 mM of 2-morpholinoethanesulfonic acid monohydrate (“MES”) at pH 6.0 rather than the HEPES buffer at pH 7.0 described above.

The target in assay [5] is T3, MMP-7FL (full length matrilysin) (Homo sapiens, UniProt P09237).
T3 sequence (P09237 95-267): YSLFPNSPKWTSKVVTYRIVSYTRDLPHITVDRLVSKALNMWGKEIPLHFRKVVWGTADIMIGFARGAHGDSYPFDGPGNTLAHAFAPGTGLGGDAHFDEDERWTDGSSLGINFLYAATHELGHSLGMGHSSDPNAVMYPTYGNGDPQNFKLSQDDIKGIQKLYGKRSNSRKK
The assay can be described thus: Thiopeptolide hydrolysis assay, MMP-7FL. To be noted: thiopeptolide substrate, HEPES pH 7.0, 22° C.
Excerpt: as §1, §2, §3

The target of assay [6] is MMP-9FL (full length Gelatinase B) (Homo sapiens, UniProt P14780). The assay can be described thus: Thiopeptolide hydrolysis assay, MMP-9FL. To be noted: thiopeptolide substrate, HEPES pH 7.0, 22° C.
Excerpt: as §1, §2, §3

In assay [7] the target is T4, MMP-1FL (full length interstitial collagenase) (Homo sapiens, UniProt P03956).
T4 sequence (P03956 100-469): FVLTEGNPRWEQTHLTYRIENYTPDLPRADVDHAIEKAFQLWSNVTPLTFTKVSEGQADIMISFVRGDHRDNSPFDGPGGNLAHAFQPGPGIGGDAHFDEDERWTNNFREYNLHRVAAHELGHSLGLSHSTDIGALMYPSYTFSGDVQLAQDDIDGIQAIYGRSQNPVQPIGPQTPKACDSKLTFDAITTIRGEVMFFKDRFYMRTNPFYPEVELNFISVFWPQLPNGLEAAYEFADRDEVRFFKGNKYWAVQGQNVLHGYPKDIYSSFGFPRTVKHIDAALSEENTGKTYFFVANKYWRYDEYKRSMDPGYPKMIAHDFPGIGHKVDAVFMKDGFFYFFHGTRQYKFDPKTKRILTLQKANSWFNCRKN
The assay can be described thus: Thiopeptolide hydrolysis assay, MMP-1FL. To be noted: thiopeptolide substrate, HEPES pH 7.0, 22° C.
Excerpt: as §1, §2, §3

MMP-9FL (full length Gelatinase B), sequence (P14780 94-707, species assumed): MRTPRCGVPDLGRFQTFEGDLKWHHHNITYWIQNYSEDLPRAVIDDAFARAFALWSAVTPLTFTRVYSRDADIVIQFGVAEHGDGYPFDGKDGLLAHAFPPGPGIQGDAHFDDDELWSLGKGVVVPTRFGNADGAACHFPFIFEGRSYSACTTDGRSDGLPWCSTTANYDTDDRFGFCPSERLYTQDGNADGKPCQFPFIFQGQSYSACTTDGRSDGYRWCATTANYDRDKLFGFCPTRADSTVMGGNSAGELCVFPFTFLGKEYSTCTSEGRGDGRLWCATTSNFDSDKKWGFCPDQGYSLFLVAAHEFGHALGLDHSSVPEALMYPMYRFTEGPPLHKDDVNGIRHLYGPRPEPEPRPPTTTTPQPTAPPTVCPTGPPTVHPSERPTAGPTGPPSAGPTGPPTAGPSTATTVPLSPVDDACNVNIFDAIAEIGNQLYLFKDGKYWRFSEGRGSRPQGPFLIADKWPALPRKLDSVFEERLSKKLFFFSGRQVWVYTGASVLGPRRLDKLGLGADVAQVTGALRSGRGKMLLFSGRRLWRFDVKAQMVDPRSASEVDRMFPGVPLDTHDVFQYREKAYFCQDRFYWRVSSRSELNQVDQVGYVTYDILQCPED
MMP-3CD (catalytic domain of stromelysin-1), sequence (P08254 100-272 limits assumed): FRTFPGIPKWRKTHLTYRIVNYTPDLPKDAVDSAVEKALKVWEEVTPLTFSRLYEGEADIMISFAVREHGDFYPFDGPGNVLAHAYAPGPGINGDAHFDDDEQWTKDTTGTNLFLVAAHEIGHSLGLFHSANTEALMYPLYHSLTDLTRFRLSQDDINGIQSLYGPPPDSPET
T2 sequence (P39900 106-263 limits assumed): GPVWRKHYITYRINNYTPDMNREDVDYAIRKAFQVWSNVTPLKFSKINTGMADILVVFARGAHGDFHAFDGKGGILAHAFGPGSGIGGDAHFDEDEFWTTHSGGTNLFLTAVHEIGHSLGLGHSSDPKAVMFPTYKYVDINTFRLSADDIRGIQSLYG

Take `CC1(C)SCCN(S(=O)(=O)c2ccc(-c3ccc(-c4ccccc4)cc3)cc2)[C@H]1C(=O)O` [Example 38, (S)-2,2-Dimethyl-4-([1,1′;4′,1″]terphenyl-4-sulfonyl)-thiomorpholine-3-carboxylic acid]: the IC50 in assay [1] is 0.00135 µM; in assay [2] it was 0.00145 µM; on MMP-12CD, 0.001 µM; in assay [3] it was 0.0343 µM; in assay [4] it was 0.00295 µM; in assay [5], 2.67 µM. The results for the half-inhibitory concentration (IC50) in assay [6] and in assay [7] were 0.0032 µM and 1.17 µM, respectively.

“(S)-2,2-Dimethyl-4-(4-methylsulfanyl-biphenyl-4-sulfonyl)-thiomorpholine-3-carboxylic acid [Example 37]”: the half-maximal inhibitory concentration (IC50) in assay [1] turned out to be 0.0025 µM; in assay [2], 0.00305 µM; against MMP-12CD, 0.001 µM; in assay [3], 0.036 µM; in assay [4], 0.00475 µM; in assay [5] it was 6.87 µM. Further, the half-maximal inhibitory concentration (IC50) in assay [6] was determined as 0.069 µM; in assay [7], 2.03 µM.

`CCc1ccc(-c2ccc(S(=O)(=O)N3CCSC(C)(C)[C@@H]3C(=O)O)cc2)cc1` [Example 47, (S)-4-(4′-Ethyl-biphenyl-4-sulfonyl)-2,2-dimethyl-thiomorpholine-3-carboxylic acid]: the concentration for half-maximal inhibition (IC50) came to 0.0061 µM in assay [1]; 0.01 µM in assay [2]; 0.00125 µM against MMP-12CD; 0.0074 µM in assay [4]; 9 µM in assay [5]; 0.14 µM in assay [6]. In addition, the IC50 in assay [7] is 5.4 µM.

Take `CC1(C)SCCN(S(=O)(=O)c2ccc(-c3ccc(F)cc3F)cc2)[C@H]1C(=O)O` [Example 39, (S)-4-(2′,4′-Difluoro-biphenyl-4-sulfonyl)-2,2-dimethyl-thiomorpholine-3-carboxylic acid]: the half-maximal inhibitory concentration (IC50) in assay [1] is 0.115 µM; in assay [2], 0.16 µM; at MMP-12CD, 0.013 µM; in assay [3] it was 0.67 µM; in assay [4] it was 0.0285 µM; in assay [5], 25 µM. In addition, the half-inhibitory concentration (IC50) worked out at 2.78 µM in assay [6] and 3.25 µM in assay [7].

As for `CC1(C)SCCN(S(=O)(=O)c2ccc(-c3ccc(Oc4ccccc4)cc3)cc2)[C@H]1C(=O)O` [Example 40, (S)-2,2-Dimethyl-4-(4′-phenoxy-biphenyl-4-sulfonyl)-thiomorpholine-3-carboxylic acid], the IC50 in assay [1] was 0.17 µM; in assay [2], 0.1 µM; at MMP-12CD, 0.004 µM; in assay [3], 1.5 µM; in assay [4], 0.0094 µM; in assay [5], 13 µM. In assay [6], inhibition was half-maximal at 2.2 µM (IC50).

On to `CC1(C)SCCN(S(=O)(=O)c2ccc(-c3ccc(-c4ccccc4)c(F)c3)cc2)[C@H]1C(=O)O` [Example 53, (S)-4-(2′-Fluoro-[1,1′;4′,1″]terphenyl-4″-sulfonyl)-2,2-dimethyl-thiomorpholine-3-carboxylic acid], for which the IC50 in assay [1] was 0.0043 µM; in assay [2], 0.0086 µM; at MMP-12CD it was 0.001 µM; in assay [3], 0.145 µM; in assay [4], 0.0072 µM; in assay [5], 1.85 µM. Moreover, the half-maximal inhibitory concentration (IC50) in assay [6] is 0.017 µM; in assay [7] it was 3.15 µM.

For `CC1(C)SCCN(S(=O)(=O)c2ccc(-c3ccc(F)c(F)c3)cc2)[C@H]1C(=O)O` [Example 41, (S)-4-(3′,4′-Difluoro-biphenyl-4-sulfonyl)-2,2-dimethyl-thiomorpholine-3-carboxylic acid], the IC50 in assay [1] amounted to 0.23 µM; in assay [2], 0.3 µM; against MMP-12CD, 0.0285 µM; in assay [3], 0.615 µM; in assay [4], 0.054 µM; in assay [5], 92.5 µM. For the same compound, the IC50 in assay [6] came to 6.65 µM; in assay [7], 9.7 µM.
